Results on three compounds are retold here after EP0738149B1 (priority 1994, dated 1995).

Each structure is given as a SMILES string. Where a name gives a salt, the structure may show the parent alone. Read-outs that look alike come from different tables or passages of the source.

For data set [1], the system named is mice. Kind of data set: Maximal electroshock (MES) model in mice, i.p.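 Also: Electroshock-induced convulsion model serving to demonstrate antiepileptic efficacy against generalized and partial seizures.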 Format: in vivo. The note with it: Mus musculus, ip, Table 15.
Data set [2] can be described thus: in vivo. The note with it: mouse, in vivo, ip. As to the method: (§1) Neurotoxicity of the claimed agents was also assessed in mice (i.p. administration) by the rotorod ataxia test and/or in rats (p.o. administration) by positional sense test and gait stance test. […] The term quantitating the neurotoxicity is the medial neurological toxic dose (TD50), was determined in the above tests.

Data set [3] relates to mice. Kind of data set: in vivo. The note with it: mouse, in vivo, ip. As to the method:
as §1

In data set [4] the test system is rats. Briefly: Electrically kindled rat model of epilepsy, p.o. It is filed as in vivo. The conditions noted are these: po, read-out: ED50 (prevented seizures). The source says: The rat electrical kindling model of epilepsy has been known to show efficacy of antiepileptic agents against complex partial seizures that evolve into generalized motor seizures. In these tests, rats were electrically stimulated via corneal electrodes twice daily for approximately 5 days and then once daily for an additional 10 days. Once the seizure criteria, as described by R.J. Racine, et al., Electroenceph. Clin. Neurophysiol. 32: 281-294 (1972), were met, the test substance was administered p.o. to rats, and the rat electrically stimulated, and observed for the presence or absence of a seizure.

Data set [5] deals with mice. The note with it: Mus musculus, ip, read-out: MICE scMet ED50, mice, i.p.; Table 16.
The test system of data set [6] is rats. Kind of data set: Maximal electroshock (MES) model in rats, p.o.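 Also: rat MES model gauging antiepileptic efficacy versus generalized and partial seizures after oral dosing.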 Format: in vivo. The note with it: rats, p.o., Table 15.
Data set [7] can be described thus: in vivo. The conditions noted are these: rat, in vivo, po. As to the method: as §1
Data set [8] concerns rats. Kind of data set: Neurotoxicity in rats (positional sense test and gait stance test), p.o. The conditions noted are these: rats, p.o.; Table 16. As to the method:
as §1

Data set [9] relates to mechanically dissociated neonatal rat cerebellum. Kind of data set: Reversal of NMDA induced cell death in cultures of neonatal rat cerebellum. The conditions noted are these: for SURVIVING CELL IN CULTURE: relative to control (100%); for PERCENT PROTECTION: Cell Survival minus the NMDA effect; for EFFECTIVE PROTECTION: X x 100/70. It is filed as cell-based. An outline of the steps:
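Cerebellar cells from 6–7-day rat pups on poly-L-lysine at 200/mm^2, grown 3 days (37°C, 5% CO2), then compound with NMDA challenge (1mM, 3 hours); spermine (0.01 micromoles) plus NMDA as positive control, duplicates. Survival by phase contrast and trypan blue after 24 hours; effective protection = percent protection ×100/70.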

Data set [10] has the same test system. Kind of data set: Enhancement of cell survival in cultures of neonatal rat cerebellum (no NMDA). It is filed as cell-based. The note with it: 24 hours after addition, percentage of the number of control cells on the fourth day. The protocol: The cerebellum was aseptically dissociated from 6 or 7-day old rat pups and placed in a 15ml sterile plastic conical tube containing 3ml of Dulbecco's modified Eagle's medium (DMEM) with a high glucose concentration ([…]) and 2mM (v/v) L-glutamine and an antibiotic antimitotic mixture. The cerebella were then dissociated after 20-25 passages through a sterile 13 gauge, 10cm long stainless steel needle attached to a 5ml syringe with an inserted 45 micrometer pore nylon sieve. The dissociated cells were centrifuged at 200g for 5 minutes. […] Cell viability was determined by the tryptan blue exclusion test.
Cells were plated at a density of 200/mm^2 on poly-L-lysine coated surfaces. Poly-L-lysine coated glass coverslips were prepared at least one hour in advance of plating by immersing sterile coverslips in sterile distilled water solution containing 15 microgram/ml poly-L-lysine, and washing in sterile water just prior to use. […] After three days in culture, the media was replaced with media containing the desired test compound. Each test compound was tested in duplicate. Toxic-dose response was determined for each compound.
Cell cultures were grown as described above but in the absence of NMDA and after 3 days a dose of test compound was added. Cell survival was monitored as described above.

A further data set relates to Male mongolian gerbils. Briefly: Global brain ischemia in gerbils (CA1 pyramidal neurons). The conditions noted are these: 3 injections, fraction of hippocampi protected from ischemia, 14 days post-ischemia. Format: in vivo. As to the method:
Each artery was clamped for 5 minutes with aneurysm clips to produce global brain ischemia. The anesthesia was discontinued upon clamping. After 5 minutes the clamps were removed and the wound closed with skin clips.
For treatment, the test compound or vehicle were injected intra-peritoneally (ip) in a volume of 50 microliters of solvent per 10g body weight. The first injection was given two minutes after clamp removal, and thereafter daily for the next 2 post-operative days (total of 3 injections).
Seven groups each of 4-8 animals were compared: • I. Control; (sham- or unoperated and saline treated), • II. Vehicle treated, unoperated (when solvent is other than saline), • III. Ischemia - untreated or saline treated), • IV. Ischemia - vehicle treated (when solvent is other than saline), • V. Ischemia - Test compound treated, one sub-group per concentration tested, • VI. Ischemia and pentobarbital (40 mg/kg) as positive control).
Analysis of neuronal damage was performed 14 days post-ischemia by counting pyramidal neurons throughout the CA1 layer of the anterior hippocampus in […] thick (paraffin) coronal brain sections stained with hematoxylin and erosin.
Percent Protection values represent the fraction of hippocampi protected from ischemia in a group of animals treated with the stated dose of compound.

The test system of data set [11] is rats. The conditions noted are these: Rattus norvegicus, po, read-out: RATS scMet ED50.
[12] abbreviates: 0.005 µM + NMDA 1mM for 3 hours.
Where [13] appears, read: 0.010 µM + NMDA 1mM for 3 hours.

For `CC(=O)NC1CCc2ccccc21` (racemic) [Example 17, (rac)-N-Acetyl-1-aminoindan], the ED50 in the data set on mice [1] was 33 mg/kg; in the data set with rats [4], less than 75 mg/kg; in the data set with mice [5], 71.5 mg/kg. The compound also yielded a TD50 in “in vivo [2]” (MICE TD50) of 90 mg/kg. For the same compound, the “MICE TD50” value in the data set with mice [3] stood at 90 mg/kg.

For the compound `NC(=O)CN[C@H]1CCc2ccccc21` [Example 2, (S)-N-(2-Acetamido)-1-aminoindan.HCl], in the data set on rats [6], the “RATS MES 50” value is listed as 21 mg/kg. Further, the values for the ED50 in the data set with mice [1], in the data set on rats [11] and in the data set on mice [5] were 39 mg/kg, more than 250 mg/kg and more than 150 mg/kg, respectively. The TD50 in the data set “in vivo [7]” is more than 500 mg/kg; in “in vivo [2]” (MICE TD50, mice, Table 15), 137 mg/kg; in the data set “in vivo [2]” (MICE TD50, mice, Table 16), 137 mg/kg. For the same compound, in the data set on rats [8], the “RATS TD50” value is given as more than 500 mg/kg. Also, the “SURVIVING CELL IN CULTURE” value stood at 56% in data set [9] (setting [12]), 51% in data set [9] (setting [13]) and 33% in [9] (0.100 µM + NMDA 1mM for 3 hours). Moreover, the “PERCENT PROTECTION” value in data set [9] (0.005 µM + NMDA) is reported as 26%; in data set [9] (0.010 µM + NMDA), 21%; in [9] (0.100 µM + NMDA), 3%; in the data set on Male mongolian gerbils (0.1 mg/kg ip), 0%; with Male mongolian gerbils (1.0 mg/kg ip), 50.0%; with Male mongolian gerbils (10.0 mg/kg ip), 37.5%. The “EFFECTIVE PROTECTION” value worked out at 37% in data set [9] (0.005 µM + NMDA), 30% in data set [9] (0.010 µM + NMDA) and 4% in data set [9] (0.100 µM + NMDA). Besides, the “% ENHANCED SURVIVAL” value in data set [10] (0.005 µM) stood at 140%; in data set [10] (0.01 µM), 125%.

With `CC(=O)N[C@H]1CCc2ccccc21` [Example 19, (S)-N-Acetyl-1-aminoindan], the ED50 is 24 mg/kg in the data set with rats [6] (Rattus norvegicus, po, read-out: RATS MES 50); 40 mg/kg in the data set with mice [1]; more than 50 mg/kg in the data set with rats [4]; more than 250 mg/kg with rats [11]; 86 mg/kg in the data set on mice [5]. The TD50 is more than 500 mg/kg in the data set “in vivo [7]” and 61 mg/kg in “in vivo [2]” (MICE TD50). The “RATS TD50” value in the data set with rats [8] is more than 500 mg/kg. Moreover, in the data set on mice [3], the “MICE TD50” value turned out to be 61 mg/kg. The “SURVIVING CELL IN CULTURE” value in data set [9] (0.001 µM + NMDA 1mM for 3 hours) came out at 80%; in data set [9] (setting [12]) it was 30%; in data set [9] (setting [13]) it was 42%; in data set [9] (1.000 µM + NMDA 1mM for 3 hours), 15%. Moreover, the “PERCENT PROTECTION” value was 50% in data set [9] (0.001 µM + NMDA); 0% in data set [9] (0.005 µM + NMDA); 12% in [9] (0.010 µM + NMDA); -15% in data set [9] (1.000 µM + NMDA); 25.0% with Male mongolian gerbils (0.1 mg/kg ip); 0% with Male mongolian gerbils (1.0 mg/kg ip). The “PERCENT PROTECTION” value with Male mongolian gerbils (10.0 mg/kg ip) stood at 37.5%. For the same compound, the “EFFECTIVE PROTECTION” value in data set [9] (0.001 µM + NMDA) worked out at 71%; in data set [9] (0.005 µM + NMDA) it was 0%; in data set [9] (0.010 µM + NMDA) it was 17%. The “% ENHANCED SURVIVAL” value in [10] (0.005 µM) was determined as 120%.
